Source: US10077261B2, “Imidazolin-5-one derivative useful as FASN inhibitors for the treatment of cancer” (Janssen Pharmaceutica NV, priority 2012, dated 2018)

What was measured:
[1] = biological target: T1, hFASN enzyme (full length) (Homo sapiens, UniProt P49327); assay: Fatty Acid Synthase (FASN) inhibition scintillation proximity assay; format: biochemical; conditions: for inhibition at 10 µM: read-out: Human FASN % inhibition @ 10 μM, 10 μM test compound; for IC50: read-out: Human FASN pIC50 (converted)
T1 construct: 10 μL hFASN enzyme (full length, 300 ng, purified in house); made in house
T1 sequence (P49327 whole entry): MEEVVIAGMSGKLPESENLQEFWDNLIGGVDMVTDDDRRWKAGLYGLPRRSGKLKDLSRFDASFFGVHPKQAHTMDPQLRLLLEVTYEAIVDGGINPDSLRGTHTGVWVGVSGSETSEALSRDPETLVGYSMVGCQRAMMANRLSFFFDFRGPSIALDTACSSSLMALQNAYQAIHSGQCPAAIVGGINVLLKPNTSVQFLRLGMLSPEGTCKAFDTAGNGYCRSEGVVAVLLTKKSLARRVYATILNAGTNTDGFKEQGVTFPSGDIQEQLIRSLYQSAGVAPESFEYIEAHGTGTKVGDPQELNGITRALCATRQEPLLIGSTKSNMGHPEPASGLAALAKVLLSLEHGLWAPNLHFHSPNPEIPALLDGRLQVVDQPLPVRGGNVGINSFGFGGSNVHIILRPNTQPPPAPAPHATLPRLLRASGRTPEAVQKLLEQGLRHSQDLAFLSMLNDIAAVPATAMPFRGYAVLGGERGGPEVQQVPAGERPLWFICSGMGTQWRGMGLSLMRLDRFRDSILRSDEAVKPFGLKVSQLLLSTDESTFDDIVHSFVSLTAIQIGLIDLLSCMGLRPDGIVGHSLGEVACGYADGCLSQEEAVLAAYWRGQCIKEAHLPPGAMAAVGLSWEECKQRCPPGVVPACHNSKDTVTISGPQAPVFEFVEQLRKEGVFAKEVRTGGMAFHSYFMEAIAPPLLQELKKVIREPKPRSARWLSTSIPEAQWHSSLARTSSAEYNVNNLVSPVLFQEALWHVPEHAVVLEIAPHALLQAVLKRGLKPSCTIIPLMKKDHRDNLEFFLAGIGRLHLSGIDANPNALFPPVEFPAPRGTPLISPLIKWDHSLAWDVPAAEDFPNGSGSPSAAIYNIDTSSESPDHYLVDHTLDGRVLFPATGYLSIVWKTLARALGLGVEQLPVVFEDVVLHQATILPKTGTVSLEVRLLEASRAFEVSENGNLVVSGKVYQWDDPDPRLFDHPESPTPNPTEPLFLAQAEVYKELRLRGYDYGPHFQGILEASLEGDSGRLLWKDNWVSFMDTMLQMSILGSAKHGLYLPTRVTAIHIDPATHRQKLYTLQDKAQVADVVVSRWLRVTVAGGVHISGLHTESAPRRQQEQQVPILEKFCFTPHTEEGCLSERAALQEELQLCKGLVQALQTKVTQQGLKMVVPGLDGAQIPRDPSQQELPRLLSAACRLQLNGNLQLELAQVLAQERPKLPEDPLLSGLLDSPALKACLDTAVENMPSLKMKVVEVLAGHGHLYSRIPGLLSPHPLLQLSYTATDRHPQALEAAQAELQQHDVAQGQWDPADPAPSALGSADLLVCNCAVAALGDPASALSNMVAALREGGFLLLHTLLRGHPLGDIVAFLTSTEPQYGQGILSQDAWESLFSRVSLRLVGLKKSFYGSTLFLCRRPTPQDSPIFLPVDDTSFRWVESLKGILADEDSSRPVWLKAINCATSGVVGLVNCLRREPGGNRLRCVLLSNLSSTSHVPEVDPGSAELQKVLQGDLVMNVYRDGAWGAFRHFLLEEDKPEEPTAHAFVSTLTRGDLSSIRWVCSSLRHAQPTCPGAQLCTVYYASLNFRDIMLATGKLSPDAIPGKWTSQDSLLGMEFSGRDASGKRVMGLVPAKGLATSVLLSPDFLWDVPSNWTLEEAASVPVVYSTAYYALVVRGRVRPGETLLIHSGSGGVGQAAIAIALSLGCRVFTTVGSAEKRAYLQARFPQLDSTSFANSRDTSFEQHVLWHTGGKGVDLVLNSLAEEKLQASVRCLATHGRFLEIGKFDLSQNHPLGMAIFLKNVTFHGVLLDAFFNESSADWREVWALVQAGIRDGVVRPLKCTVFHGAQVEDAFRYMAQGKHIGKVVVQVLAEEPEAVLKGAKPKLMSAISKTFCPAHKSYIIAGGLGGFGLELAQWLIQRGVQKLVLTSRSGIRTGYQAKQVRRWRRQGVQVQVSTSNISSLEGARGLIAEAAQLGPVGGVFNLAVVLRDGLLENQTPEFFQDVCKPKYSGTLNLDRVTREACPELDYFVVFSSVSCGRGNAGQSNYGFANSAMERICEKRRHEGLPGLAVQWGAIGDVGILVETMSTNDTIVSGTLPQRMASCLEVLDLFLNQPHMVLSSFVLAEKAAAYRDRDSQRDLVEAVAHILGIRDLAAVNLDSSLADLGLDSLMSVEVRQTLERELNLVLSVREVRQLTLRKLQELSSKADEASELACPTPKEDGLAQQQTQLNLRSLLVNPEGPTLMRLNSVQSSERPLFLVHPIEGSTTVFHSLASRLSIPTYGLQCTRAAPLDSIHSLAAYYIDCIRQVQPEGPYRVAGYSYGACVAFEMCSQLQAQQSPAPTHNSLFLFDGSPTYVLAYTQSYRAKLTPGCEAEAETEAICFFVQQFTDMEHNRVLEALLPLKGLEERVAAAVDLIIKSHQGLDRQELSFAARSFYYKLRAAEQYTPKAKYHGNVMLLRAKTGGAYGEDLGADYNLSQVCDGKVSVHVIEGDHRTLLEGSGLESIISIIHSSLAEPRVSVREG
How it was run: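 Full-length in-house purified enzyme (300 ng) was tested in 100 mM KH2PO4 pH 7.5, 1 mM DTT with ³H-acetyl-CoA and malonyl-CoA as substrates; compounds ranged 0.01–30 μM. Reactions were stopped with streptavidin imaging beads, read by LEADseeker at 610 nm, and fitted to a 4-parameter logistic curve.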

A2780 ovarian cells [2] = assay: A2780 ovarian cell proliferation assay in lipid reduced medium, with palmitate (MTT); format: cell-based; conditions: Homo sapiens, A2780, 96 h; read-out: pIC50 A2780 Ovarian Cell, With Palmitate (converted)
How it was run: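 Seeded cells were switched next day to lipid-reduced serum, exposed to compound and 25 μM palmitate complexed with fatty-acid-free BSA, and incubated 96 h. Proliferation was then determined by MTT absorbance at 544 nm, with a best-fit curve of signal against concentration.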

A2780 ovarian cells [3] = assay: A2780 ovarian cell proliferation assay in lipid reduced medium, without palmitate (MTT); format: cell-based; conditions: Homo sapiens, A2780, 96 h; read-out: pIC50 A2780 Ovarian Cell, Without Palmitate (converted)
[4] = test system: LNCaP-Vancouver prostate cells; assay: In vitro LNCaP Vancouver prostate cell proliferation assay in lipid reduced medium; format: cell-based; conditions: read-out: pIC50 LNCaP_Vancouver prostate cell (converted)
[5] = test system: PC-3M-Luc-C6 prostate cells; assay: In vitro PC-3M-Luc-C6 prostate cell proliferation assay in lipid reduced medium; format: cell-based; conditions: 96 h, read-out: pIC50 PC-3M-Luc-C6 prostate cell (converted)
[6] = biological target: Fatty Acid Synthase Keto-reductase Domain (FASN KR) (Homo sapiens, UniProt P49327); assay: Fatty Acid Synthase keto-reductase domain (FASN KR) inhibition, NADPH oxidation at 340 nm
Fatty Acid Synthase Keto-reductase Domain (FASN KR), sequence (P49327 whole entry, the tested form may be a part): as the sequence (P49327 whole entry) above
Method: After 20 minutes incubation at room temperature the plate was measured again (T2).
The decrease in absorbance was calculated as (Absorbance before incubation T1)−(Absorbance following incubation T2).
A plot of Controlmin versus test compound concentration was fitted to a 4-parameter logistic curve using a non-linear least squares regression method.

| SMILES | inhibition at 10 µM [1] [%] | IC50 [1] [nM] | IC50 (A2780 ovarian cells [2]) [µM] | IC50 (A2780 ovarian cells [3]) [nM] | IC50 [4] [nM] | IC50 [5] [nM] | IC50 [6] [nM] |
| --- | --- | --- | --- | --- | --- | --- | --- |
| Cc1nc2cc(-c3ccc(C4=NC5(CC5)C(=O)N4CC4CN(C(=O)C5CC5)C4)c(F)c3)ccc2s1 [compound 356, 6-((1-(cyclopropanecarbonyl)azetidin-3-yl)methyl)-5-(2-fluoro-4-(2-methylbenzo[d]thiazol-5-yl)phenyl)-4,6-diazaspiro[2.4]hept-4-en-7-one] | 99 | 102 | > 10 | ~162 | 1480 | ~324 | 479 |
| Cn1ncc2cc(-c3ccc(C4=NC5(CC5)C(=O)N4CC4CN(C(=O)C5(C)CC5)C4)c(F)c3)ccc21 [compound 357, 5-(2-fluoro-4-(1-methyl-1H-indaozl-5-yl)phenyl)-6-((1-(1-methylcyclopropanecarbonyl)azetidin-3-yl)methyl)-4,6-diazaspiro[2.4]hept-4-en-7-one] | 97 | 39.8 | > 10 | 22.4 | 372 | 25.1 | 63.1 |
| Cn1cc(-c2ccc(-c3ccc(C4=NC5(CC5)C(=O)N4CC4CN(C(=O)C5(C)CC5)C4)c(F)c3)cc2)cn1 [compound 358, 5-(3-fluoro-4′-(1-methyl-1H-pyrazol-4-yl)-[1,1′-biphenyl]-4-yl)-6-((1-(1-methylcyclopropanecarbonyl)azetidin-3-yl)methyl)-4,6-diazaspiro[2.4]hept-4-en-7-one] | 100 | 30.9 | > 10 | 3.16 | 77.6 | 14.8 | 51.3 |
| Cn1nccc1-c1ccc(-c2ccc(C3=NC4(CC4)C(=O)N3C[C@@H]3CCN(C(=O)C4(C)CC4)C3)c(F)c2)cc1 [compound 362] | 96 | 77.6 | > 10 | ~42.7 | ~295 | ~56.2 | 126 |
| O=C(N1CC(CN2C(=O)C3(CC3)N=C2c2ccc(-c3ccc4cc(F)ccc4c3)cc2F)C1)C1(O)CC1 [compound 365, 5-(2-fluoro-4-(6-fluoronaphthalen-2-yl)phenyl)-6-((1-(1-hydroxycyclopropanecarbonyl)azetidin-3-yl)methyl)-4,6-diazaspiro[2.4]hept-4-en-7-one] | 97 | 23.4 | ~10 | 6.46 | 56.2 | 7.59 | 53.7 |
| O=C(C1CC1)N1CC(CN2C(=O)C3(CC3)N=C2c2ccc(-c3ccc4ccccc4c3)cc2F)C1 [compound 368, 6-((1-(1-cyclopropanecarbonyl)azetidin-3-yl)methyl)-5-(2-fluoro-4-(naphthalen-2-yl)phenyl)-4,6-diazaspiro[2.4]hept-4-en-7-one] | 90 | 28.2 | 4.47 | 21.4 | 214 | 28.8 | 58.9 |
| Cn1nccc1-c1ccc(-c2ccc(C3=NC4(CC4)C(=O)N3C[C@@H]3CCN(C(=O)C4(O)CC4)C3)c(F)c2)cc1 [compound 371, (R)-5-(3-fluoro-4′-(1-methyl-1H-pyrazol-5-yl)-[1,1′-biphenyl]-4-yl)-6-((1-(1-hydroxycyclopropanecarbonyl)pyrrolidin-3-yl)methyl)-4,6-diazaspiro[2.4]hept-4-en-7-one] | 101 | 56.2 | 8.13 | 72.4 | 490 | 55 | 129 |
| O=C(N1CC(CN2C(=O)C3(CC3)N=C2c2ccc(-c3ccc4ccccc4c3)cc2F)C1)C1(O)CC1 [compound 372, 5-(2-fluoro-4-(naphthalen-2-yl)phenyl)-6-((1-(1-hydroxycyclopropanecarbbonyl)azetidin-3-yl)methyl)-4,6-diazaspiro[2.4]hept-4-en-7-one] | 101 | 16.2 | > 10 | 5.01 | 75.9 | 13.2 | 49 |
| COc1cccc2ccc(-c3ccc(C4=NC5(CC5)C(=O)N4CC4CN(C(=O)C5(O)CC5)C4)c(F)c3)cc12 [compound 375, 5-(2-fluoro-4-(8-methoxynaphthalen-2-yl)phenyl)-6-((1-(1-hydroxycyclopropanecarbonyl)azetidin-3-yl)methyl)-4,6-diazaspiro[2.4]hept-4-en-7-one] | 103 | 43.7 | > 10 | 72.4 | 457 | 77.6 | 89.1 |
| Cn1cnc2cc(-c3ccc(C4=NC5(CC5)C(=O)N4CC4CN(C(=O)C5(C)CC5)C4)c(F)c3)ccc21 [compound 378, 5-(2-fluoro-4-(1-methyl-1H-benzo[d]imidazol-5-yl)phenyl)-6-((1-(1-methylcyclopropanecarbonyl)azetidin-3-yl)methyl)-4,6-diazaspiro[2.4]hept-4-en-7-one] | 100 | 38.9 | > 10 | ~5.13 | 74.1 | 10.5 | 45.7 |

Further lines, results first:

| inhibition at 10 µM [1] [%] | IC50 [1] [nM] | IC50 (A2780 ovarian cells [2]) [µM] | IC50 (A2780 ovarian cells [3]) [nM] | IC50 [4] [nM] | IC50 [5] [nM] | IC50 [6] [nM] | SMILES |
| --- | --- | --- | --- | --- | --- | --- | --- |
| 95 | 39.8 | > 6.17 | 8.13 | ~79.4 | 8.32 | 41.7 | CC1(C(=O)N2CC(CN3C(=O)C4(CC4)N=C3c3ccc(-c4ccc5cc(F)ccc5c4)cc3F)C2)CC1 [compound 359, 5-(2-fluoro-4-(6-fluoronaphthalen-2-yl)phenyl)-6-((1-(1-methylcyclopropanecarbonyl)azetidin-3-yl)methyl)-4,6-diazaspiro[2.4]hept-4-en-7-one] |
| 103 | 39.8 | > 10 | ~3.63 | ~12.9 | 3.24 | 45.7 | Cn1ncc2cc(-c3ccc(C4=NC5(CC5)C(=O)N4C[C@@H]4CCN(C(=O)C5(C)CC5)C4)c(F)c3)ccc21 [compound 361, (R)-5-(2-fluoro-4-(1-methyl-1H-indazol-5-yl)phenyl)-6-((1-(1-methylcyclopropanecarbonyl)pyrrolidin-3-yl)methyl)-4,6-diazaspiro[2.4]hept-4-en-7-one] |
| 102 | 26.3 | 2.09 | 4.27 | 45.7 | 10 | 37.2 | O=C(C1CCO1)N1CC(CN2C(=O)C3(CC3)N=C2c2ccc(-c3ccc4cc(F)ccc4c3)cc2F)C1 (centres unmarked) [compound 369, 5-(2-fluoro-4-(6-fluoronaphthalen-2-yl)phenyl)-6-((1-(oxetan-2-carbonyl)azetidin-3-yl)methyl)-4,6-diazaspiro[2.4]hept-4-en-7-one] |
| 100 | 28.8 | > 10 | ~2.4 | 20.4 | ~3.89 | 40.7 | Cn1ncc2cc(-c3ccc(C4=NC5(CC5)C(=O)N4C[C@@H]4CCN(C(=O)C5(O)CC5)C4)c(F)c3)ccc21 [compound 370, (R)-5-(2-fluoro-4-(1-methyl-1H-indazol-5-yl)phenyl)-6-((1-(1-hydroxycyclopropanecarbonyl)pyrrolidin-3-yl)methyl)-4,6-diazaspiro[2.4]hept-4-en-7-one] |
| 99 | 25.7 | > 10 | 10 | 87.1 | 20.4 | 35.5 | O=C(N1CC(CN2C(=O)C3(CC3)N=C2c2ccc(-c3ccc4cccc(F)c4c3)cc2F)C1)C1(O)CC1 [compound 374, 5-(2-fluoro-4-(8-fluoronaphthalen-2-yl)phenyl)-6-((1-(1-hydroxycyclopropanecarbonyl)azetidin-3-yl)methyl)-4,6-diazaspiro[2.4]hept-4-en-7-one] |
| 100 | 35.5 | > 10 | 22.9 | 81.3 | 28.2 | ~36.3 | Cn1cnc2cc(-c3ccc(C4=NC5(CC5)C(=O)N4CC4CN(C(=O)C5(O)CC5)C4)c(F)c3)ccc21 [compound 377, 5-(2-fluoro-4-(1-methyl-1H-benzo[d]imidazol-5-yl)phenyl)-6-((1-(1-hydroxycyclopropanecarbonyl)azetidin-3-yl)methyl)-4,6-diazaspiro[2.4]hept-4-en-7-one] |
| 102 | 20 | > 10 | ~1.07 | 5.01 | ~2.45 | 27.5 | Cn1cc(-c2ccc(-c3ccc(C4=NC5(CC5)C(=O)N4C[C@@H]4CCN(C(=O)C5(O)CC5)C4)c(F)c3)cc2)cn1 [compound 379, (R)-5-(3-fluoro-4′-(1-methyl-1H-pyrazol-4-yl)-[1,1′-biphenyl]-4-yl)-6-((1-(1-hydroxycyclopropanecarbonyl)pyrrolidin-3-yl)methyl)-4,6-diazaspiro[2.4]hept-4-en-7-one] |
